# From patent US11708562B2, “Differentiation of human embryonic stem cells” (Janssen Biotech, Inc., priority 2006, dated 2023)
# Test system: H9P33, H9P44 and H9P48 cells
# Experiment: Microarray analysis of definitive endoderm on MEFs vs MATRIGEL +/- Wnt-3A (Table VI)
# Details: DE treatment in low serum
# Procedure: Controls for each group included cells plated on […]-coated dishes and cultured in MEF-conditioned medium or cells plated on MEFs and cultured in ES medium. All groups contained three biological replicates and each biological replicate was repeated on two separate gene chips.
# Sample preparation, hybridization, and image analysis were performed according to the Affymetrix Human Genome U133 Plus 2.0 Array. Following normalization and a log transformation, data analysis was performed using OmniViz® software (MA) and […] (VizXLabs, WA). Significant differences in gene expression between the samples were evaluated using analysis of variance and an F-test with adjusted P-value (Benjamini and Hochberg correction) of ≤0.05. Only genes with a present call in at least one group were included in the analysis.
substance,measurement,setting,value
Activin A: a member of the TGFβ superfamily; growth factor (R&D Systems) used to differentiate human embryonic stem cells,"mean normalized intensity (log format), Human (clone HSY3RR) neuropeptide Y receptor (NPYR) mRNA",on MATRIGEL,1.775
same,"mean normalized intensity (log format), Human DNA sequence from clone RP1-181C24 on chromosome 6p11.1-12.2 (3 end of the BMP5 gene)",on MATRIGEL,−3.723
same,"mean normalized intensity (log format), Human Fritz mRNA, complete cds",on MATRIGEL,0.4366
same,"mean normalized intensity (log format), Human dipeptidyl peptidase IV (CD26) mRNA",on MATRIGEL,−3.611
same,"mean normalized intensity (log format), Human glycophorin HeP2 mRNA, partial cds",on MATRIGEL,−0.8435
same,"mean normalized intensity (log format), Human link protein mRNA, complete cds",on MATRIGEL,−1.94
same,"mean normalized intensity (log format), Human mRNA for alpha-1 type II collagen",on MATRIGEL,−2.8736
same,"mean normalized intensity (log format), Human mRNA for apolipoprotein AI (apo AI)",on MATRIGEL,0.2151
same,"mean normalized intensity (log format), Human prostatic secretory protein 57 mRNA",on MATRIGEL,−3.013
same,"mean normalized intensity (log format), KIAA0878 protein",on MATRIGEL,1.1189
same,"mean normalized intensity (log format), KIAA1462 protein",on MATRIGEL,−3.846
same,"mean normalized intensity (log format), MCP-1 = monocyte chemotactic protein",on MATRIGEL,−2.276
same,"mean normalized intensity (log format), Rho GDP dissociation inhibitor (GDI) alpha",on MATRIGEL,−1.544
same,"mean normalized intensity (log format), WAS protein family, member 2",on MATRIGEL,−2.187
same,"mean normalized intensity (log format), collagen, type IX, alpha 2",on MATRIGEL,1.27
same,"mean normalized intensity (log format), collagen, type VI, alpha 1",on MATRIGEL,−1.418
same,"mean normalized intensity (log format), glycophorin B (includes Ss blood group)",on MATRIGEL,−2.852
same,"mean normalized intensity (log format), hepatocyte nuclear factor 4, alpha",on MATRIGEL,−4.266
same,"mean normalized intensity (log format), homeo box HB9",on MATRIGEL,−1.656
same,"mean normalized intensity (log format), hypothetical protein FLJ21032",on MATRIGEL,0.3557
same,"mean normalized intensity (log format), hypothetical protein FLJ23091",on MATRIGEL,0.3234
same,"mean normalized intensity (log format), hypothetical protein FLJ23403",on MATRIGEL,−1.456
same,"mean normalized intensity (log format), matrix metalloproteinase 14 (membrane-inserted)",on MATRIGEL,−2.057
same,"mean normalized intensity (log format), microfibrillar-associated protein 4",on MATRIGEL,0.06379
same,"mean normalized intensity (log format), myristoylated alanine-rich protein kinase C substrate (MARCKS, 80K-L)",on MATRIGEL,−0.7172
same,"mean normalized intensity (log format), neuropilin 1",on MATRIGEL,−1.623
same,"mean normalized intensity (log format), noggin",on MATRIGEL,−1.636
same,"mean normalized intensity (log format), phorbolin-like protein MDS019",on MATRIGEL,−1.118
same,"mean normalized intensity (log format), solute carrier family 16 (monocarboxylic acid transporters), member 3",on MATRIGEL,−0.06641
same,"mean normalized intensity (log format), splicing factor, arginineserine-rich 5",on MATRIGEL,0.7481
same,"mean normalized intensity (log format), stanniocalcin 1",on MATRIGEL,2.411
same,"mean normalized intensity (log format), 6-phosphofructo-2-kinasefructose-2,6-biphosphatase 4",on MEFS,1.6
same,"mean normalized intensity (log format), Cluster Incl. AB028021: Homo sapiens HNF-3beta mRNA for hepatocyte nuclear factor-3 beta",on MEFS,4.117
same,"mean normalized intensity (log format), ESTs, Highly similar to IHH_HUMAN INDIAN HEDGEHOG PROTEIN PRECURSOR (H. sapiens)",on MEFS,0.5905
same,"mean normalized intensity (log format), ESTs, Moderately similar to JE0284 Mm-1 cell derived transplantability-associated protein 1b (H. sapiens)",on MEFS,4.222
same,"mean normalized intensity (log format), ESTs, Weakly similar to FCE2 MOUSE LOW AFFINITY IMMUNOGLOBULIN EPSILON FC RECEPTOR (M. musculus)",on MEFS,3.48
same,"mean normalized intensity (log format), ESTs, Weakly similar to the 331st table hypothetical protein KIAA0555 (H. sapiens)",on MEFS,0.4436
same,"mean normalized intensity (log format), G protein-coupled receptor",on MEFS,5.053
same,"mean normalized intensity (log format), G protein-coupled receptor 49",on MEFS,2.505
same,"mean normalized intensity (log format), Homo sapiens HNF-3beta mRNA for hepatocyte nuclear factor-3 beta",on MEFS,2.825
same,"mean normalized intensity (log format), Homo sapiens KIAA0878 protein (KIAA0878), mRNA",on MEFS,5.654
same,"mean normalized intensity (log format), Homo sapiens Kell blood group (KEL), mRNA",on MEFS,−0.3839
same,"mean normalized intensity (log format), Homo sapiens MLL septin-like fusion (MSF), mRNA",on MEFS,−1.5
same,"mean normalized intensity (log format), Homo sapiens Mix-like homeobox protein 1 (MILD1) mRNA",on MEFS,0.922
same,"mean normalized intensity (log format), Homo sapiens Rho GTPase activating protein 6 (ARHGAP6), transcript variant 2, mRNA",on MEFS,−1.285
same,"mean normalized intensity (log format), Homo sapiens TBX3-iso protein (TBX3-iso), mRNA",on MEFS,1.07
same,"mean normalized intensity (log format), Homo sapiens angiopoietin 2 (ANGPT2), mRNA",on MEFS,0.5968
same,"mean normalized intensity (log format), Homo sapiens ankyrin-like with transmembrane domains 1 (ANKTM1), mRNA",on MEFS,2.819
same,"mean normalized intensity (log format), Homo sapiens apolipoprotein A-I (APOA1), mRNA",on MEFS,2.469
same,"mean normalized intensity (log format), Homo sapiens apolipoprotein A-II (APOA2), mRNA",on MEFS,4.469
same,"mean normalized intensity (log format), Homo sapiens arylsulfatase E (chondrodysplasia punctata 1) (ARSE), mRNA",on MEFS,3.184
same,"mean normalized intensity (log format), Homo sapiens atrophin-1 interacting protein 1; activin receptor interacting protein 1 (KIAA0705), mRNA",on MEFS,−1.32
same,"mean normalized intensity (log format), Homo sapiens beta-site APP cleaving enzyme (BACE) mRNA",on MEFS,1.754
same,"mean normalized intensity (log format), Homo sapiens cDNA FLJ11550 fis, clone HEMBA1002970",on MEFS,4.216
same,"mean normalized intensity (log format), Homo sapiens cDNA FLJ12993 fis, clone NT2RP3000197",on MEFS,2.069
same,"mean normalized intensity (log format), Homo sapiens cDNA FLJ13221 fis, clone NT2RP4002075",on MEFS,1.31
same,"mean normalized intensity (log format), Homo sapiens cardiac ventricular troponin C mRNA",on MEFS,1.4377
same,"mean normalized intensity (log format), Homo sapiens cartilage linking protein 1 (CRTL1), mRNA",on MEFS,−0.8052
same,"mean normalized intensity (log format), Homo sapiens cell adhesion molecule with homology to L1CAM (close homologue of L1) (CHL1), mRNA",on MEFS,−2.5002
same,"mean normalized intensity (log format), Homo sapiens chromosome 19, cosmid R31181",on MEFS,0.2239
same,"mean normalized intensity (log format), Homo sapiens clone 23736 mRNA sequence",on MEFS,4.507
same,"mean normalized intensity (log format), Homo sapiens cryptic mRNA, complete cds",on MEFS,−0.6735
same,"mean normalized intensity (log format), Homo sapiens cystatin SA (CST2), mRNA",on MEFS,2.1671
same,"mean normalized intensity (log format), Homo sapiens cystatin SN (CST1), mRNA",on MEFS,4.64
same,"mean normalized intensity (log format), Homo sapiens cytidine deaminase (CDA), mRNA",on MEFS,−1.67
same,"mean normalized intensity (log format), Homo sapiens dual specificity phosphatase 4 (DUSP4), mRNA",on MEFS,4.122
same,"mean normalized intensity (log format), Homo sapiens fibroblast growth factor 8 (androgen-induced) (FGF8), mRNA",on MEFS,0.01583
same,"mean normalized intensity (log format), Homo sapiens fibroblast growth factor 17 (FGF17), mRNA",on MEFS,2.4872
same,"mean normalized intensity (log format), Homo sapiens frizzled-related protein (FRZB), mRNA",on MEFS,3.676
same,"mean normalized intensity (log format), Homo sapiens gastrin-releasing peptide (GRP), mRNA",on MEFS,0.5098
same,"mean normalized intensity (log format), Homo sapiens glycophorin B (includes Ss blood group) (GYPB), mRNA",on MEFS,0.1803
same,"mean normalized intensity (log format), Homo sapiens glycophorin E (GYPE), mRNA",on MEFS,−1.501
